pKi: −log10 of the molar value.
Legend:
Liver microsome [1] = experiment: Drug metabolism in human liver microsomes assessed as episesamin monocatecholization at 5 uM after 15 mins by HPLC analysis in presence of NADPH and CYP2C9 inhibitor sulfaphenazole; assay type: ADME; conditions: 0.25 h
Cytochrome P450 3A4 = Cytochrome P450 3A4 (Homo sapiens, UniProt P08684); experiment: Activity of recombinant human CYP3A4 expressed in Saccharomyces cerevisiae AH22 cells assessed as enzyme-mediated catecholization at 2 to 75 uM after 15 mins by HPLC analysis in presence of NADPH; assay type: ADME, cell-based; conditions: ah22, 0.25 h
Cytochrome P450 3A4, sequence (P08684 whole entry): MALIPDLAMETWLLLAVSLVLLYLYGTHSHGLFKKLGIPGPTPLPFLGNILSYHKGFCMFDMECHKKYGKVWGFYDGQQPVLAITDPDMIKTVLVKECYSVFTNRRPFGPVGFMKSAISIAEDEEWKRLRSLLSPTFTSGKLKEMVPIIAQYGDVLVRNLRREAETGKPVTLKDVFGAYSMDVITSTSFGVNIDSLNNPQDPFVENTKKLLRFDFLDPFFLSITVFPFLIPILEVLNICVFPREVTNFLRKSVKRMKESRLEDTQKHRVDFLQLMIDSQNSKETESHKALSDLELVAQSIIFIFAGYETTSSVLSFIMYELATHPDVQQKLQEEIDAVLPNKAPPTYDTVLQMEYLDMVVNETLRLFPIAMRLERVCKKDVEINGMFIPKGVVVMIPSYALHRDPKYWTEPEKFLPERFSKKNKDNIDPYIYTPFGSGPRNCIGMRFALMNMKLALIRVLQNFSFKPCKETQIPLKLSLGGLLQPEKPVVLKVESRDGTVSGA

[2] = Drug metabolism in human liver microsomes assessed as CYP450-mediated catecholization per mg of protein after 10 to 30 mins by HPLC analysis in presence of NADPH; assay type: ADME
CYP450 [3] = experiment: Drug metabolism in Sprague-Dawley rat liver microsomes assessed as CYP450-mediated catecholization after 10 to 30 mins by HPLC analysis in presence of NADPH; assay type: ADME
CYP2C9 [4] = target: T1, CYP2C9 (Homo sapiens, UniProt P11712); experiment: (§1) Mechanism-based inhibition of recombinant human CYP2C9 expressed in microsomes isolated from Saccharomyces cerevisiae AH22 cells assessed as diclofenac 4'-hydroxylation preincubated for 5 to 10 mins followed by substrate addition measured after 15 mins by HPLC analysis; assay type: ADME, cell-based; conditions: human, probe diclofenac (4'-hydroxylation)
T1 sequence (P11712 whole entry): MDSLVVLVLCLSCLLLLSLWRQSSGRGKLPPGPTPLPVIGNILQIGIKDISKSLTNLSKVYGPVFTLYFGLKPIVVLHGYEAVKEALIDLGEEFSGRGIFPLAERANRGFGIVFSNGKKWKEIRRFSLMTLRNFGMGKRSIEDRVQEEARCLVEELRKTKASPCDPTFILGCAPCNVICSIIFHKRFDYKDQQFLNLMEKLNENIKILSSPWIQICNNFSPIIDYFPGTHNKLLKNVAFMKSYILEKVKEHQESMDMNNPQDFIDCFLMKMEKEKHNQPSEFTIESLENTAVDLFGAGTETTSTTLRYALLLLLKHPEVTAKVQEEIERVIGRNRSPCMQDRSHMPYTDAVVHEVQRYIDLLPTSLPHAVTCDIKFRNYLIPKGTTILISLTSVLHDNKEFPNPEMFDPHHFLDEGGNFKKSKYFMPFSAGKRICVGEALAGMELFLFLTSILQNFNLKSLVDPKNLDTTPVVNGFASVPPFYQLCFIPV

Cytochrome P450 2C9 [5] = target: T2, Cytochrome P450 2C9 (Homo sapiens, UniProt P11712); experiment: as §1; assay type: ADME, cell-based
T2 sequence (P11712 whole entry): as above

Liver microsome [6] = experiment: Drug metabolism in human liver microsomes assessed as episesamin monocatecholization at 5 uM after 15 mins by HPLC analysis in presence of NADPH and CYP2C19 inhibitor (+)-N-3-benzylnirvanol; assay type: ADME; conditions: 0.25 h
CYP450 [7] = experiment: Drug metabolism in human liver microsomes assessed as CYP450-mediated catecholization after 10 to 30 mins by HPLC analysis in presence of NADPH; assay type: ADME
Liver microsome [8] = experiment: Drug metabolism in heat-inactivated human liver microsomes assessed as episesamin dicatechol formation at 2 to 75 uM after 15 mins by HPLC analysis in presence of NADPH; assay type: ADME; conditions: 0.25 h
Cytochrome P450 2C9 [9] = target: T2, Cytochrome P450 2C9; experiment: Activity of recombinant human CYP2C9 expressed in Saccharomyces cerevisiae AH22 cells assessed as enzyme-mediated (R)-episesamin monocatechol formation at 2 to 75 uM after 15 mins by HPLC analysis in presence of NADPH; assay type: ADME, cell-based; conditions: ah22, 0.25 h
Cytochrome P450 2C19 [10] = target: T3, Cytochrome P450 2C19 (Homo sapiens, UniProt P33261); experiment: Activity of recombinant human CYP2C19 expressed in Saccharomyces cerevisiae AH22 cells assessed as enzyme-mediated episesamin dicatechol formation at 2 to 75 uM after 15 mins by HPLC analysis in presence of NADPH; assay type: ADME, cell-based; conditions: ah22, 0.25 h
T3 sequence (P33261 whole entry): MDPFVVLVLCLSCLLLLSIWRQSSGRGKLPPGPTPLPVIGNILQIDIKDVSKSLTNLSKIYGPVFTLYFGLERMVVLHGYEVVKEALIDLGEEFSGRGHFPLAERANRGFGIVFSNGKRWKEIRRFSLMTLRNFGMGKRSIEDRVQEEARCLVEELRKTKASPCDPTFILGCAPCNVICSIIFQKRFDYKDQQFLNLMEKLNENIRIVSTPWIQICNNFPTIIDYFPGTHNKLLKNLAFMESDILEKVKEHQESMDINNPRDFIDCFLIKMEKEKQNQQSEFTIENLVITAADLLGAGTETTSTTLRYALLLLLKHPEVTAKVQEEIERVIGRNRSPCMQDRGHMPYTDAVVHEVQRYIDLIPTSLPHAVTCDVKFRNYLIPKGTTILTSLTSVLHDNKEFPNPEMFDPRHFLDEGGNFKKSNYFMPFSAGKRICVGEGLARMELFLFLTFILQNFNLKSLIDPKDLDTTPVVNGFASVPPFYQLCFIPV

[11] = Drug metabolism in Sprague-Dawley rat liver microsomes assessed as CYP450-mediated catecholization per mg of protein after 10 to 30 mins by HPLC analysis in presence of NADPH; assay type: ADME
Liver microsome [12] = experiment: Drug metabolism in human liver microsomes assessed as (S)-episesamin monocatechol formation at 5 uM after 15 mins by HPLC analysis in presence of NADPH and anti-CYP1A2 antibody; assay type: ADME; conditions: 0.25 h
Liver microsome [13] = experiment: Drug metabolism in human liver microsomes assessed as (R)-episesamin monocatechol formation at 5 uM after 15 mins by HPLC analysis in presence of NADPH and anti-CYP2C9 antibody; assay type: ADME; conditions: 0.25 h
CYP2C9 [14] = target: T1, CYP2C9; experiment: Ratio of Kinact to Ki(app) for mechanism-based inhibition of recombinant human CYP2C9 expressed in microsomes isolated from Saccharomyces cerevisiae AH22 cells assessed as diclofenac 4'-hydroxylation preincubated for 5 to 10 mins followed by substrate addition measured after 15 mins by HPLC analysis; assay type: ADME, cell-based; conditions: probe diclofenac (4'-hydroxylation)
Cytochrome P450 1A2 [15] = target: T4, Cytochrome P450 1A2 (Homo sapiens, UniProt P05177); experiment: Activity of recombinant human CYP1A2 expressed in Saccharomyces cerevisiae AH22 cells assessed as enzyme-mediated (R)-episesamin monocatechol formation at 2 to 75 uM after 15 mins by HPLC analysis in presence of NADPH; assay type: ADME, cell-based; conditions: ah22, 0.25 h
T4 sequence (P05177 whole entry): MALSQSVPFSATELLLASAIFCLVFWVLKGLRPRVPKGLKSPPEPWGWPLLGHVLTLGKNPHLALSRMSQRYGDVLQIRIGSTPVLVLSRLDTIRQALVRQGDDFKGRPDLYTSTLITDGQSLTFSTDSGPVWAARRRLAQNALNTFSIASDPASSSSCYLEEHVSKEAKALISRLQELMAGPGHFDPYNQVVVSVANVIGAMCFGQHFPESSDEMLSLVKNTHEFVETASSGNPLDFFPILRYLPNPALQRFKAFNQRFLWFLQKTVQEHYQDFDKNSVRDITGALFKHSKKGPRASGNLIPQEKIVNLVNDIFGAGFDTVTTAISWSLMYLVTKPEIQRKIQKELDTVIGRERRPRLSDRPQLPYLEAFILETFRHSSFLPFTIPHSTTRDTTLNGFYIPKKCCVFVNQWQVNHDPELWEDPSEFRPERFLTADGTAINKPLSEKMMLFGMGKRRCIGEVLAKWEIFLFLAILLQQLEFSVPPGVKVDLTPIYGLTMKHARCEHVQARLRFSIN

Cytochrome P450 2C9 [16] = target: T2, Cytochrome P450 2C9; experiment: Mechanism-based inhibition of recombinant human CYP2C9 expressed in microsomes isolated from Saccharomyces cerevisiae AH22 cells assessed as diclofenac 4'-hydroxylation up to 50 uM preincubated for 5 to 10 mins followed by substrate addition measured by HPLC analysis; assay type: ADME, cell-based
Liver microsome [17] = experiment: Drug metabolism in human liver microsomes assessed as (S)-episesamin monocatechol formation at 5 uM after 15 mins by HPLC analysis in presence of NADPH and anti-CYP2C9 antibody; assay type: ADME; conditions: 0.25 h
Liver microsome [18] = experiment: Drug metabolism in human liver microsomes assessed as episesamin dicatechol formation at 2 to 75 uM after 15 mins by HPLC analysis in presence of NADPH; assay type: ADME; conditions: 0.25 h
Liver microsome [19] = experiment: Drug metabolism in human liver microsomes assessed as (S)-episesamin monocatechol formation at 5 uM after 30 mins by HPLC analysis in presence of NADPH; assay type: ADME; conditions: 0.5 h
Liver microsome [20] = experiment: Drug metabolism in human liver microsomes assessed as (R)-episesamin monocatechol formation at 5 uM after 30 mins by HPLC analysis in presence of NADPH; assay type: ADME; conditions: 0.5 h
Liver microsome [21] = experiment: Drug metabolism in human liver microsomes assessed as (R)-episesamin monocatechol formation at 5 uM after 15 mins by HPLC analysis in presence of NADPH and anti-CYP1A2 antibody; assay type: ADME; conditions: 0.25 h
Liver microsome [22] = experiment: Drug metabolism in human liver microsomes assessed as (S)-episesamin monocatechol formation at 2 to 75 uM after 15 mins by HPLC analysis in presence of NADPH; assay type: ADME; conditions: 0.25 h
Cytochrome P450 2E1 = Cytochrome P450 2E1 (Homo sapiens, UniProt P05181); experiment: Activity of recombinant human CYP2E1 expressed in Saccharomyces cerevisiae AH22 cells assessed as enzyme-mediated catecholization at 2 to 75 uM after 15 mins by HPLC analysis in presence of NADPH; assay type: ADME, cell-based; conditions: ah22, 0.25 h
Cytochrome P450 2E1, sequence (P05181 whole entry): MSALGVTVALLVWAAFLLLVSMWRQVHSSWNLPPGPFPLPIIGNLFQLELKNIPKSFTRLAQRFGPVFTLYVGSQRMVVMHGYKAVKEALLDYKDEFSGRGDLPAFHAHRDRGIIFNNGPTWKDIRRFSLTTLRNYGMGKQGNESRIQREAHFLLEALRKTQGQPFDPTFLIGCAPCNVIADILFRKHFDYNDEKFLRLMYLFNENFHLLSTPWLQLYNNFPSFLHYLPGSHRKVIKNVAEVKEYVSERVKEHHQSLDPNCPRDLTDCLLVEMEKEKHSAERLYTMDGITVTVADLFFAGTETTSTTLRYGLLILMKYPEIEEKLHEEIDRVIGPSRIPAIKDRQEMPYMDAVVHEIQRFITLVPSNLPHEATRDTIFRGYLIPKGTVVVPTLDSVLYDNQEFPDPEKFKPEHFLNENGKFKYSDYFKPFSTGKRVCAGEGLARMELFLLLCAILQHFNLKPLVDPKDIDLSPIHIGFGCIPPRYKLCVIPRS

Cytochrome P450 2C9 [23] = target: T2, Cytochrome P450 2C9; experiment: Activity of recombinant human CYP2C9 expressed in Saccharomyces cerevisiae AH22 cells assessed as enzyme-mediated (S)-episesamin monocatechol formation at 2 to 75 uM after 15 mins by HPLC analysis in presence of NADPH; assay type: ADME, cell-based; conditions: ah22, 0.25 h
Cytochrome P450 2C9 [24] = target: T2, Cytochrome P450 2C9; experiment: Activity of recombinant human CYP2C9 expressed in Saccharomyces cerevisiae AH22 cells assessed as enzyme-mediated episesamin dicatechol formation at 2 to 75 uM after 15 mins by HPLC analysis in presence of NADPH; assay type: ADME, cell-based; conditions: ah22, 0.25 h
Liver microsome [25] = experiment: Drug metabolism in human liver microsomes assessed as (R)-episesamin monocatechol formation at 2 to 75 uM after 15 mins by HPLC analysis in presence of NADPH; assay type: ADME; conditions: 0.25 h
Cytochrome P450 1A2 [26] = target: T4, Cytochrome P450 1A2; experiment: Activity of recombinant human CYP1A2 expressed in Saccharomyces cerevisiae AH22 cells assessed as enzyme-mediated episesamin dicatechol formation at 2 to 75 uM after 15 mins by HPLC analysis in presence of NADPH; assay type: ADME, cell-based; conditions: ah22, 0.25 h
Cytochrome P450 2D6 = Cytochrome P450 2D6 (Homo sapiens, UniProt P10635); experiment: Activity of recombinant human CYP2D6 expressed in Saccharomyces cerevisiae AH22 cells assessed as enzyme-mediated catecholization at 2 to 75 uM after 15 mins by HPLC analysis in presence of NADPH; assay type: ADME, cell-based; conditions: ah22, 0.25 h
Cytochrome P450 2D6, sequence (P10635 whole entry): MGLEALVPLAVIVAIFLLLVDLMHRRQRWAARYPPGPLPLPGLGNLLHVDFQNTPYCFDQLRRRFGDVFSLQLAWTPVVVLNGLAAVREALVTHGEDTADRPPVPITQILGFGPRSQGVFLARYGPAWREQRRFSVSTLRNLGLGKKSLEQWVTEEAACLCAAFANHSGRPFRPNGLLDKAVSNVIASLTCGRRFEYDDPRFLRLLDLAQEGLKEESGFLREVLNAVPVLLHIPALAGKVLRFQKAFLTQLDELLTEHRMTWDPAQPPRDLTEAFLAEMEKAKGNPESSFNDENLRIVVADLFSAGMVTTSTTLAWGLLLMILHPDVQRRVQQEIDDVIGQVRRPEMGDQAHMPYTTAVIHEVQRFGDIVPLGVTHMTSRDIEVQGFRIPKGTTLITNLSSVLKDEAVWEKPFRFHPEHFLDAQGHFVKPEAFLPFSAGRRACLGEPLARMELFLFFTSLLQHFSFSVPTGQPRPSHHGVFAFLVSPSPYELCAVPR

Cytochrome P450 2C19 [27] = target: T3, Cytochrome P450 2C19; experiment: Activity of recombinant human CYP2C19 expressed in Saccharomyces cerevisiae AH22 cells assessed as enzyme-mediated (S)-episesamin monocatechol formation at 2 to 75 uM after 15 mins by HPLC analysis in presence of NADPH; assay type: ADME, cell-based; conditions: ah22, 0.25 h
Cytochrome P450 2C19 [28] = target: T3, Cytochrome P450 2C19; experiment: Activity of recombinant human CYP2C19 expressed in Saccharomyces cerevisiae AH22 cells assessed as enzyme-mediated (R)-episesamin monocatechol formation at 2 to 75 uM after 15 mins by HPLC analysis in presence of NADPH; assay type: ADME, cell-based; conditions: ah22, 0.25 h
Liver microsome [29] = experiment: Drug metabolism in human liver microsomes assessed as sesamin monocatechol formation after 30 mins by HPLC analysis in presence of NADPH; assay type: ADME; conditions: 0.5 h
Cytochrome P450 2C19 [30] = target: T3, Cytochrome P450 2C19; experiment: Activity of recombinant human CYP2C19 expressed in Saccharomyces cerevisiae AH22 cells assessed as enzyme-mediated sesamin dicatechol/monocatechol formation at 2 to 20 uM after 15 mins by HPLC analysis in presence of NADPH; assay type: ADME, cell-based; conditions: ah22, 0.25 h

c1cc2c(cc1[C@H]1OC[C@H]3[C@@H]1CO[C@H]3c1ccc3c(c1)OCO3)OCO2 [ASARININ]
Drug metabolism (Liver microsome [1]): metabolite_not_detected
Drug metabolism (Cytochrome P450 3A4): metabolite_not_detected
Vmax [2]: 0.4 nmol/min/mg
Km (CYP450 [3]): 16 µM
kinact at 0.25 h (CYP2C9 [4]): 0.00283 s⁻¹
inhibition (INH) (Cytochrome P450 2C9 [5]; human, microsomes, 0.25 h): Dose-dependent effect
pKi (Cytochrome P450 2C9 [5]; read-out: Ki(app)): 5.17
Drug metabolism (Liver microsome [6]): metabolite_detected
Km (CYP450 [7]): 13 µM
Drug metabolism (Liver microsome [8]): metabolite_not_detected
Drug metabolism (Cytochrome P450 2C9 [9]): metabolite_detected
Drug metabolism (Cytochrome P450 2C19 [10]): metabolite_detected
Vmax [11]: 6.3 nmol/min/mg
Drug metabolism (Liver microsome [12]): metabolite_detected
Drug metabolism (Liver microsome [13]): metabolite_not_detected
kinact/KI at 0.25 h (CYP2C9 [14]): 417 M⁻¹ s⁻¹
Drug metabolism (Cytochrome P450 1A2 [15]): metabolite_detected
inhibition (INH) (Cytochrome P450 2C9 [16]): Dose-dependent effect
Drug metabolism (Liver microsome [17]): metabolite_not_detected
Drug metabolism (Liver microsome [18]): metabolite_detected
Drug metabolism (Liver microsome [19]): metabolite_detected
Drug metabolism (Liver microsome [20]): metabolite_detected
Drug metabolism (Liver microsome [21]): metabolite_not_detected
Drug metabolism (Liver microsome [22]): metabolite_detected
Drug metabolism (Cytochrome P450 2E1): metabolite_not_detected
Drug metabolism (Cytochrome P450 2C9 [23]): metabolite_detected
Drug metabolism (Cytochrome P450 2C9 [24]): metabolite_not_detected
Drug metabolism (Liver microsome [25]): metabolite_detected
Drug metabolism (Cytochrome P450 1A2 [26]): metabolite_not_detected
Drug metabolism (Cytochrome P450 2D6): metabolite_not_detected
Drug metabolism (Cytochrome P450 2C19 [27]): metabolite_detected
Drug metabolism (Cytochrome P450 2C19 [28]): metabolite_detected

c1cc2c(cc1[C@H]1OC[C@H]3[C@@H]1CO[C@@H]3c1ccc3c(c1)OCO3)OCO2 [SESAMIN]
Drug metabolism (Liver microsome [29]): metabolite_detected
Vmax [2]: 0.81 nmol/min/mg
Km (CYP450 [3]): 7.1 µM
Km (CYP450 [7]): 7.7 µM
Vmax [11]: 4.8 nmol/min/mg
kinact/KI at 0.25 h (CYP2C9 [14]): 2330 M⁻¹ s⁻¹
Drug metabolism (Cytochrome P450 2C19 [30]): metabolite_detected

— ChEMBL document CHEMBL3525932, “Comparison of metabolism of sesamin and episesamin by drug-metabolizing enzymes in human liver” (Drug Metab Dispos, 2012)
